Laboratory results reported in patent US20090087378A1, “Positron Tomography Method and Positron-Emitting Compound to Be Used Therein” (NARD INSTITUTE, LTD., priority 2006, published 2009).
Where two headings read alike, the source gives them in different places.

Columns and labels:
Assay type in all cases: in vivo, rhesus monkey
[1] = Test for determining the amount of uptake of positron-emitting source compound (PET of brain after intravenous injection); conditions: for kinetics in the brain: rhesus monkey, intravenous, PET
Method: A rhesus monkey (male, 5.5 kg in weight) was fasted overnight prior to the assay date. The monkey was seated on a monkey chair, and its head was fixed in a gantry of an animal PET camera (SHR-7700 manufactured by Hamamatsu Photonics K.K.) by a head positioner. Transmission measurement was performed for 30 minutes for […]. The injection products prepared in Production Examples 1-3 and 2 were then intravenously administered in doses of 77 ng/kg weight in terms of the amount of compound (Ia) and 230 ng/kg weight in terms of the amount of compound (Ib), respectively, and dynamic measurement was performed for 180 minutes. After the obtained images were reconstituted, a region of interest (ROI) was set in each part of the brain, and kinetics of radioactivity was determined in each region.

[2] = molecular target: T1, α7 nicotine receptor (Macaca mulatta, UniProt Q866A2)
T1 construct: from tissue; host or cells: brain of the living animal (in vivo PET)
T1 sequence (Q866A2 23-502): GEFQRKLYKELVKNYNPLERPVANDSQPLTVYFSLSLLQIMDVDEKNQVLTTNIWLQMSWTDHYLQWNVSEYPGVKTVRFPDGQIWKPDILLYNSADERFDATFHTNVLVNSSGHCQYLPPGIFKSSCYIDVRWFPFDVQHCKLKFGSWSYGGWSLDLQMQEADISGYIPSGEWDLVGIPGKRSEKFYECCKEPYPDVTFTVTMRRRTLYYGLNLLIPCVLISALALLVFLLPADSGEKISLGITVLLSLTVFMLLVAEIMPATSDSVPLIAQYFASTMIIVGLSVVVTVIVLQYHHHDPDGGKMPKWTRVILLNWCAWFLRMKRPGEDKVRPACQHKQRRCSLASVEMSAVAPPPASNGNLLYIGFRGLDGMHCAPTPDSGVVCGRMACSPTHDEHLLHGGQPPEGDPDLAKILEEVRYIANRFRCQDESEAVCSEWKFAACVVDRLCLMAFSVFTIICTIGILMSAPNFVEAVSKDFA
Method: (§1) After 30 minutes, compound (Ia) or (Ib) was administered by intravenous injection, and dynamic measurement was performed for 91 minutes. After the obtained images were reconstituted, a region of interest (ROI) was set in each part of the brain, and kinetics of radioactivity was determined in each region.

[3] = tested on: α4β2 nicotine receptor; assay: Test for selectivity to α7 nicotine receptor: PET brain uptake after pre-administration of α4β2-selective agonist A85380
Method: as §1

SMILES | time of peak value of radioactivity, most/other parts of the brain ([1]; after the administration, brain parts except hippocampus) | time of peak value of radioactivity, hippocampus ([1]; after the administration) | distribution of the concentrated compound in the brain ([1]; integrated images 40 to 60 minutes after the administration) | kinetics in the brain [1] | uptake into each part of the brain after pre-administered α7 nicotine receptor-selective agonist ([2]; SSR180711A 1 or 5 mg/kg i.v. 30 minutes before the compound, depending on the dose of the agonist) | binding selectivity to α7 nicotine receptor ([2]; conclusion from blocking with SSR180711A and A85380) | effect of pre-administered α4β2 nicotine receptor-selective agonist on uptake into each part of the brain ([3]; A85380 5 mg/kg i.v. 30 minutes before the compound) | amount of uptake in the brain ([1]; compared with compound (Ia)) | binding selectivity to α7 nicotine receptor ([2]; rhesus monkey, in vivo) | uptake into each part of the brain after pre-administered α7 nicotine receptor-selective agonist ([2]; rhesus monkey, in vivo) | effect of pre-administered α4β2 nicotine receptor-selective agonist on uptake into each part of the brain ([3]; rhesus monkey, in vivo)
[11CH3]c1ccc(OC(=O)N2CCN3CCC2CC3)cc1 [Compound (Ia), 4-[^11C]methyl-phenyl 1,4-diazabicyclo[3.2.2]nonane-4-carboxylate] | about 10 minutes | 30 min | high in hippocampus, corpus striatum, thalamus, cingulate gyrus and cerebral cortex, but low in cerebellum | relatively fast | reduced to the level in the cerebellum | selective binding to α7 nicotine receptor | almost no effect |  |  |  | 
O=C(Oc1ccc([76Br])cc1)N1CCN2CCC1CC2 [Compound (Ib), 4-[^76Br]bromophenyl 1,4-diazabicyclo[3.2.2]nonane-4-carboxylate] |  | 60 min |  | generally slow |  |  |  | not as large as that of compound (Ia) | selective binding to α7 nicotine receptor | reduced to the level in the cerebellum | almost no effect
